# Test: Apremilast Data Pool: weight change
# Type: in vivo, human
# Text: Similar results of weight loss were reported for the Apremilast Data Pool. A weight decrease was reported during the Placebo-controlled Period (24 weeks) in 3 (0.2%) subjects who received placebo and 26 (0.9%) subjects who received apremilast, including 8 (0.8%) subject in the APR 20 BID group, and 18 (1.1%) subjects in the APR 30 BID group.
# The end-of-period value is the last postbaseline value (only through the Placebo-controlled Period for placebo-treated subjects) including data up to 28 days after the last dose of investigational product but excluding the observational follow-up visit.
# The end-of-period value is the last postbaseline value (while subjects were receiving apremilast), including data up to 28 days after the last dose of apremilast but excluding the observational follow-up visit.
# [1] = 20 mg BID, Placebo-controlled Period, Subjects as Initially Treated at Week 0, m = 900
# [2] = 30 mg BID, Apremilast-exposure Period
# [3] = 30 mg BID, Apremilast-exposure Period, Apremilast Subjects as Treated, m = 2268
# [4] = 30 mg BID, Placebo-controlled Period
# [5] = 30 mg BID, Placebo-controlled Period, Subjects as Initially Treated at Week 0, m = 1541
# [6] = APR Total, Apremilast-exposure Period, Apremilast Subjects as Treated, m = 3606
# [7] = APR Total, Placebo-controlled Period, Subjects as Initially Treated at Week 0, m = 2591
smiles,measurement,setting,value
"CCOc1cc([C@@H](CS(C)(=O)=O)N2C(=O)c3cccc(NC(C)=O)c3C2=O)ccc1OC [Apremilast, (+)-2-[1-(3-ethoxy-4-methoxyphenyl)-2-methylsulfonylethyl]-4-acetylaminoisoindoline-1,3-dione]","Weight % Change Category 0%, n (%)",[1],101 (11.2) n (%)
same,"Weight % Change Category <−20%, n (%)",[1],1 (0.1) n (%)
same,"Weight % Change Category >0% to ≦5%, n (%)",[1],277 (30.8) n (%)
same,"Weight % Change Category >5% to ≦10%, n (%)",[1],262 (2.9) n (%)
same,"Weight % Change Category >10% to ≦20%, n (%)",[1],2 (0.2) n (%)
same,"Weight % Change Category >20%, n (%)",[1],0 n (%)
same,"Weight % Change Category ≧−5% to <0%, n (%)",[1],393 (43.7) n (%)
same,"Weight % Change Category ≧−10% to <−5%, n (%)",[1],84 (9.3) n (%)
same,"Weight % Change Category ≧−20% to <−10%, n (%)",[1],16 (1.8) n (%)
same,mean weight change from baseline,"20 mg BID, end of the Apremilast-exposure Period",-1.09 kg
same,mean weight change from baseline,"20 mg BID, end of the Placebo-controlled Period, Subjects as Initially Treated at Week 0",-1.01 kg
same,"observed weight loss of greater than 10%, % subjects",[2],4.9%
same,"weight decrease reported, subjects n (%)",[2],36 (1.5%) n (%)
same,"Weight % Change Category 0%, n (%)",[3],162 (7.1) n (%)
same,"Weight % Change Category <−20%, n (%)",[3],11 (0.5) n (%)
same,"Weight % Change Category >0% to ≦5%, n (%)",[3],610 (26.9) n (%)
same,"Weight % Change Category >5% to ≦10%, n (%)",[3],116 (5.1) n (%)
same,"Weight % Change Category >10% to ≦20%, n (%)",[3],29 (1.3) n (%)
same,"Weight % Change Category >20%, n (%)",[3],5 (0.2) n (%)
same,"Weight % Change Category ≧−5% to <0%, n (%)",[3],923 (40.7) n (%)
same,"Weight % Change Category ≧−10% to <−5%, n (%)",[3],311 (13.7) n (%)
same,"Weight % Change Category ≧−20% to <−10%, n (%)",[3],101 (4.5) n (%)
same,"observed weight loss of greater than 10%, subjects n (%)",[4],23 (1.5%) n (%)
same,percentage of subjects with weight change of >−10% to <−5%,[4],11.3%
same,"weight decrease reported, subjects n (%)","30 mg BID, Placebo-controlled Period (24 weeks)",18 (1.1%) n (%)
same,"Weight % Change Category 0%, n (%)",[5],159 (10.3) n (%)
same,"Weight % Change Category <−20%, n (%)",[5],1 (0.1) n (%)
same,"Weight % Change Category >0% to ≦5%, n (%)",[5],410 (26.6) n (%)
same,"Weight % Change Category >5% to ≦10%, n (%)",[5],37 (2.4) n (%)
same,"Weight % Change Category >10% to ≦20%, n (%)",[5],8 (0.5) n (%)
same,"Weight % Change Category >20%, n (%)",[5],1 (0.1) n (%)
same,"Weight % Change Category ≧−5% to <0%, n (%)",[5],729 (47.3) n (%)
same,"Weight % Change Category ≧−10% to <−5%, n (%)",[5],174 (11.3) n (%)
same,"Weight % Change Category ≧−20% to <−10%, n (%)",[5],22 (1.4) n (%)
same,mean weight change from baseline,"30 mg BID, end of the Apremilast-exposure Period",-1.41 kg
same,mean weight change from baseline,"30 mg BID, end of the Placebo-controlled Period, Subjects as Initially Treated at Week 0",-1.21 kg
same,"Weight % Change Category 0%, n (%)",[6],325 (8.3) n (%)
same,"Weight % Change Category <−20%, n (%)",[6],14 (0.4) n (%)
same,"Weight % Change Category >0% to ≦5%, n (%)",[6],1109 (28.4) n (%)
same,"Weight % Change Category >5% to ≦10%, n (%)",[6],179 (4.6) n (%)
same,"Weight % Change Category >10% to ≦20%, n (%)",[6],48 (1.2) n (%)
same,"Weight % Change Category >20%, n (%)",[6],6 (0.2) n (%)
same,"Weight % Change Category ≧−5% to <0%, n (%)",[6],1602 (41.0) n (%)
same,"Weight % Change Category ≧−10% to <−5%, n (%)",[6],466 (11.9) n (%)
same,"Weight % Change Category ≧−20% to <−10%, n (%)",[6],157 (4.0) n (%)
same,"Weight % Change Category 0%, n (%)",[7],280 (10.8) n (%)
same,"Weight % Change Category <−20%, n (%)",[7],3 (0.1) n (%)
same,"Weight % Change Category >0% to ≦5%, n (%)",[7],741 (28.6) n (%)
same,"Weight % Change Category >5% to ≦10%, n (%)",[7],66 (2.5) n (%)
same,"Weight % Change Category >10% to ≦20%, n (%)",[7],12 (0.5) n (%)
same,"Weight % Change Category >20%, n (%)",[7],1 (<0.1) n (%)
same,"Weight % Change Category ≧−5% to <0%, n (%)",[7],1187 (45.8) n (%)
same,"Weight % Change Category ≧−10% to <−5%, n (%)",[7],263 (10.2) n (%)
same,"Weight % Change Category ≧−20% to <−10%, n (%)",[7],38 (1.5) n (%)
same,body weight of the majority of subjects,Placebo-controlled Period and Apremilast-exposure Period,maintained their body weight within 0% and 5% of baseline
same,"weight decrease reported, subjects n (%)","all subjects who received apremilast, Placebo-controlled Period (24 weeks)",26 (0.9%) n (%)

# From patent publication US20150209327A1, “METHODS FOR THE TREATMENT OF OBESITY USING APREMILAST” (Celgene Corporation, priority 2014, published 2015)
